The results in this text go back to US7033593B2, “Immunogen comprising an HIV envelope protein, a ligand and H2 peptide” (priority 2000, dated 2006).

One test has as its target cleaved HIV 89.6 gp140 (Human immunodeficiency virus type 1 group M subtype B, UniProt Q73372). The class given is binding. As to conditions: no sCD4.
Test [1] has as its system T8-gp140 (HIV 89.6 gp140). As to conditions: SPR. Here is the method: FIG. 14A. […] FIGS. 14B and 14C. […] After stabilization of gp140 capture, either the 19b (anti-gp120 V3) or 2F5 (anti-gp41) antibodies (300 μg/ml) were injected to assess the relative amounts of gp120 and gp41 on both surfaces. FIGS. 14D–14F.
A blank chip served as an in-line reference surface for subtraction of non-specific binding and bulk responses.
Surface Plasmon Resonance Biosensor Measurements. SPR biosensor measurements were determined on a BIACORE 3000 (BIACORE Inc., Uppsala, Sweden) instrument. […] A blank in-line reference surface (activated and de-activated for amine coupling) was used to subtract non-specific or bulk responses. Binding of proteins and peptides (biotinylated or free DP178, T649Q26L, DP178-scrambled) was monitored in real-time at 25° C. with a continuous flow of PBS (150 mM NaCl, 0.005% surfactant p20), pH 7.4 at 10–30 μl/min. Analyte (proteins and peptides) were removed and the sensor surfaces were regenerated following each cycle of binding by single or duplicate 5–10 μl pulses of regeneration solution (10 mM glycine-HCl, pH 2.5 or 10 mM NaOH).
Background: SPR reads the build-up and loss of mass on a sensor chip optically.

In test [2] the target is T8-gp120 (HIV 89.6 gp120) (Human immunodeficiency virus type 1 group M subtype B, UniProt Q73372). The class given is binding. To be noted: SPR.
Test [3] relates to gp41-gp120-sCD4 complex (ADA gp41, 89.6 gp120). Kind of test: SPR binding of DP178 to gp41-gp120 and gp41-gp120-sCD4 complexes. To be noted: DP178 50 μg/ml. More on the design: species or system HIV. Here is the method: FIGS. 17A and 17B show induction of HR-2 peptide binding to gp120-gp41 complex. […] Soluble 89.6 gp120 (100 μg/ml) or a gp120-CD4 mixture (gp120 pre-incubated with 0.3 mg/ml of CD4 for 30 min) was injected at 5 μl/min for 10 min over a sensor surface immobilized with ADA gp41. At the end of the injections, wash buffer (PBS) was allowed to flow until the surface was stable with no baseline drift. Roughly 300 RU of gp120 and 850 RU of gp120-CD4 formed stable complexes with the immobilized gp41 surface. […] Thus both surfaces were stable and had equivalent amount of associated gp120 or gp120-CD4.
In the preparation of HIV 89.6 gp140 envelope, there is uncleaved gp140, and cleaved gp140 components of gp120 and gp41. Thus, it is possible that HR-2 peptide could be induced to bind uncleaved gp140 and/or could be induced to bind to cleaved gp120 and gp41.

A further test has as its target HIV-1 Env 89.6 gp120 (Human immunodeficiency virus type 1 group M subtype B, UniProt Q73372). In words: biochemical. The class given is binding, HIV-1 89.6.
The subject of a further test is BaL gp120. In words: BIACORE capture assay: peptide binding to BaL gp120. As to conditions: CCR5-utilizing isolate. More on the design: species or system HIV-1 BaL. The method, then: Rectangular bars represent the surface of the sensor chip on which sCD4 or mAbs A32 or T8 were covalently immobilized. Soluble gp120 proteins were first captured on each of these surfaces and then DP178 or sDP178 peptides were injected and their binding interactions were monitored. […] Based on their molecular size (1:27), 2000 RU of immobilized gp120 would bind 74 RU of DP178 peptide. […] Arrows point to start of injection of gp120 and DP178. […] In FIG. 27C, specific binding signal (solid) is shown after subtraction of non-specific signal (broken line). […] 50 μg/ml of DP178 peptide was flowed at 30 μl/min over each of these surfaces after 2000 RU of 89.6 gp120 was bound (FIG. 27D). In FIG. 27E, these same surfaces were also used to monitor binding of scrDP178 (50 μg/ml). […] (FIG. 27F) Binding of DP178 and DP107 peptides to A32-gp120 complex. […] Data are a representative experiment of 3 performed. […] 50 μg/ml of DP178 peptide was flowed at 30 μl/min over each of these surfaces after RU of BaL gp120 was bound (FIG. 27G). These same surfaces were also used to monitor binding of scrDP178 (50 μg/ml) (FIG. 27H).
Surface Plasmon Resonance Biosensor Measurements.

A further test deals with 89.6 gp120 (Human immunodeficiency virus type 1 group M subtype B, UniProt Q73372). The class given is binding, HIV-1 89.6. An excerpt:
Biotinylated DP178 (FIG. 28A), scrDP178 (FIG. 28B) and scrDP107 (not shown) were attached to a SA-sensor chip through biotin-streptavidin interactions. 200–300 RU of each peptide was attached to individual flow cells of the SA chip. The scrDP107 surface was used as in-line reference subtraction of non-specific and bulk effect. All data shown here were derived after subtraction of signals from this reference surface. […] Data are a representative experiment of 3 performed.
The scrDP107 surface was used as a reference surface for subtracting bulk and non-specific binding. […] Soluble gp120 proteins, mabs or gp120 proteins pre-incubated with mabs were then injected at 20 μl/min for 2–3 min over each of the peptide-SA surface. Binding data was acquired following in-line reference subtraction of binding from the scrDP107 (HR-1) surface.
In these experiments (the “SA-chip assay”), biotinylated HR-2 peptides DP178 and scrDP178 were immobilized on adjacent flow cells of a streptavidin sensor chip (SA chip). […] The non-specific and bulk effect was measured over scrDP107 surface and this surface was used for automated in-line reference subtraction.

The target of the next test is HIV-1 89.6 gp120 (Human immunodeficiency virus type 1 group M subtype B, UniProt Q73372). The class given is binding. As to conditions: absence of sCD4 or mAb A32, blot 29A lanes 3 and 4.
The target of a further test is HIV 89.6 gp140 (Human immunodeficiency virus type 1 group M subtype B, UniProt Q73372). The class given is binding. As to conditions: biotinylated peptide.
Setting [4] is: A32-induced gp120, two-component dissociation.

Entries after “also recorded” stand apart in the source; their conditions may differ.

HIV-1 Env 89.6 gp120, sequence (Q73372 32-508): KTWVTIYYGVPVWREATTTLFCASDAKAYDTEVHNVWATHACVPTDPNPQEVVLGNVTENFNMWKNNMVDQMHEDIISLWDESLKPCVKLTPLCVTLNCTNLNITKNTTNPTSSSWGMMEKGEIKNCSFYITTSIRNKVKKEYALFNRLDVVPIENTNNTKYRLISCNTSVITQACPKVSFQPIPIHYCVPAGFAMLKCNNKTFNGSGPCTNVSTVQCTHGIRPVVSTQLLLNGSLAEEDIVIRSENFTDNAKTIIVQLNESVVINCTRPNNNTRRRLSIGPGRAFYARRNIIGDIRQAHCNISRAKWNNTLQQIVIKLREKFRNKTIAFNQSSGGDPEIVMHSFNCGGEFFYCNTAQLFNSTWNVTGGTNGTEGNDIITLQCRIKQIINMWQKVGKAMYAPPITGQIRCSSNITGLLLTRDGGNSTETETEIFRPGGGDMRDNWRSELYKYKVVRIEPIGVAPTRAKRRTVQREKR
89.6 gp120, sequence (Q73372 32-508): as above
cleaved HIV 89.6 gp140, sequence (Q73372 32-681): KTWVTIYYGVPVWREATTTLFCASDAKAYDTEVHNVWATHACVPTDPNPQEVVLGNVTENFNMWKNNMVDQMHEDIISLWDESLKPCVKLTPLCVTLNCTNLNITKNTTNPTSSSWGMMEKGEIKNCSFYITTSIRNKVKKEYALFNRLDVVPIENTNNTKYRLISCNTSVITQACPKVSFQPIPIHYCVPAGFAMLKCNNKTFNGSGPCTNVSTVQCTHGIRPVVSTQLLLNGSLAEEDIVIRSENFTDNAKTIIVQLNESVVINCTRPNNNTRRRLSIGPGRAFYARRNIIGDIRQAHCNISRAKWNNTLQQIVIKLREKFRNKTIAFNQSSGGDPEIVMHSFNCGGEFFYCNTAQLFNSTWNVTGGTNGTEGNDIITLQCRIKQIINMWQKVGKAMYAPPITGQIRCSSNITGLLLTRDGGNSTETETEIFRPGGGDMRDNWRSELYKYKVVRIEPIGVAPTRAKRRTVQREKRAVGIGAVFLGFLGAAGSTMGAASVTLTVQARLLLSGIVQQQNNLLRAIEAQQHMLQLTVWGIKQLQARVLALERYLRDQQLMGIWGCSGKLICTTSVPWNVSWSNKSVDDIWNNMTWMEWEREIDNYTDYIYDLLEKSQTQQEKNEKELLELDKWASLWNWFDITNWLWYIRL
T8-gp120 (HIV 89.6 gp120), sequence (Q73372 32-508): as the sequence (Q73372 32-508) above
HIV-1 89.6 gp120, sequence (Q73372 32-508): as above
HIV 89.6 gp140, sequence (Q73372 32-681): as the sequence (Q73372 32-681) above

A word on the Kd: it is the equilibrium constant for the complex coming apart. A low value points to tighter binding. Regarding enfuvirtide, on cleaved HIV 89.6 gp140, the “Rm (maximal binding at equilibrium)” value is 35 RU and the “binding to cleaved gp140 (in words)” value is recorded as “Low level binding”. Besides, in test [1], the “binding to T8-gp140 surface (in words)” value is “near background binding”. Besides, the “binding to gp120 on T8 mab surface (in words)” value in test [2] is listed as “neither HR-2 peptide bound”. Further, in [3], the “binding to gp41-gp120(-sCD4) complex compared to gp41 (in words)” value is reported as “upregulated; also recorded: higher binding”. The Kd at HIV-1 Env 89.6 gp120 is 820 nM. Moreover, on HIV-1 Env 89.6 gp120 (biphasic binding), the “faster component of the dissociation phase” value amounted to 0.023 s⁻¹. Further, the “slower component of the dissociation phase” value on HIV-1 Env 89.6 gp120 (biphasic binding, predominant) was found to be 0.001 s⁻¹. Also, at HIV-1 Env 89.6 gp120 (peptide 50 μg/ml), the “binding to gp120 bound to CD4 or A32 (in words)” value was “specific induction of DP178 binding; also recorded: Marked induction” and the “binding to gp120 bound to mAb T8 (in words)” value is given as “no differences were observed”. In the test with BaL gp120, the “binding to BaL gp120 complexed with A32, CD4 or T8 (in words)” value is “neither DP178 nor scrDP178 bound”. In addition, the “binding higher than expected due to mass effect only” value at 89.6 gp120 (+A32) stood at 3 fold. At 89.6 gp120 (setting [4]), this substance registered a faster off-rate of 0.020 s⁻¹ and a slower off-rate of 0.0016 s⁻¹. Besides, the “binding signal of A32-gp120 over peptide surface” value on 89.6 gp120 (gp120 pre-incubated with A32 (+A32)) was around 400 RU. In addition, the “band density of precipitated gp120” value at HIV-1 89.6 gp120 was 1.0 ODunits/mm^2. Moreover, at HIV 89.6 gp140, the “immunoprecipitation of gp41 and gp140 (in words)” value is on record as “constitutively immunoprecipitated”.
